Experimental data from ChEMBL document CHEMBL3580659, “One-pot multicomponent synthesis of indole incorporated thiazolylcoumarins and their antibacterial, anticancer and DNA cleavage studies” (2015).

Legend:
Type in all cases: functional
MDA-MB-231 = assay: Cytotoxicity against human MDA-MB-231/ATCC cells assessed as cell growth level at 100 nM after 48 hrs by sulforhodamine B assay
OVCAR-5 = assay: Cytotoxicity against human OVCAR5 cells assessed as cell growth level at 10 uM after 48 hrs by sulforhodamine B assay
OVCAR-8 = assay: Cytotoxicity against human OVCAR8 cells after 48 hrs by sulforhodamine B assay; details: OVCAR-8, 48 h
BT-549 [1] = assay: Cytotoxicity against human BT549 cells assessed as cell growth level at 1 uM after 48 hrs by sulforhodamine B assay
NCI-H460 = assay: Cytotoxicity against human NCI-H460 cells assessed as cell growth level at 100 uM after 48 hrs by sulforhodamine B assay
HCT-15 = assay: Cytotoxicity against human HCT15 cells assessed as cell growth level at 100 uM after 48 hrs by sulforhodamine B assay
MOLT-4 = assay: Cytotoxicity against human MOLT4 cells assessed as cell growth level at 1 uM after 48 hrs by sulforhodamine B assay
786-0 = assay: Cytotoxicity against human 786-0 cells assessed as cell growth level at 10 uM after 48 hrs by sulforhodamine B assay
RXF 393 [2] = assay: Cytotoxicity against human RXF393 cells assessed as cell growth level at 10 nM after 48 hrs by sulforhodamine B assay
K562 = assay: Cytotoxicity against human K562 cells assessed as cell growth level at 10 nM after 48 hrs by sulforhodamine B assay
HOP-92 [3] = assay: Cytotoxicity against human HOP92 cells assessed as cell growth level at 100 uM after 48 hrs by sulforhodamine B assay
HL-60(TB) = assay: Cytotoxicity against human HL-60(TB) cells assessed as cell growth level at 10 uM after 48 hrs by sulforhodamine B assay
IGROV-1 = assay: Cytotoxicity against human IGROV1 cells after 48 hrs by sulforhodamine B assay; details: IGROV-1, 48 h
A498 = assay: Cytotoxicity against human A498 cells assessed as cell growth level at 10 uM after 48 hrs by sulforhodamine B assay
PC-3 = assay: Cytotoxicity against human PC3 cells assessed as cell growth level at 100 nM after 48 hrs by sulforhodamine B assay
MDA-MB-468 [4] = assay: Cytotoxicity against human MDA-MB-468 cells assessed as cell growth level at 100 uM after 48 hrs by sulforhodamine B assay
HOP-92 [5] = assay: Cytotoxicity against human HOP92 cells assessed as cell growth level at 100 nM after 48 hrs by sulforhodamine B assay
DU-145 = assay: Cytotoxicity against human DU145 cells after 48 hrs by sulforhodamine B assay; details: DU-145, 48 h
ACHN = assay: Cytotoxicity against human ACHN cells assessed as cell growth level at 10 uM after 48 hrs by sulforhodamine B assay
UACC-62 = assay: Cytotoxicity against human UACC62 cells assessed as cell growth level at 10 uM after 48 hrs by sulforhodamine B assay
LOX IMVI = assay: Cytotoxicity against human LOXIMVI cells assessed as cell growth level at 100 uM after 48 hrs by sulforhodamine B assay
SNB-75 [6] = assay: Cytotoxicity against human SNB75 cells assessed as cell growth level at 100 uM after 48 hrs by sulforhodamine B assay
HCC 2998 [7] = assay: Cytotoxicity against human HCC2998 cells after 48 hrs by sulforhodamine B assay; details: HCC 2998, 48 h
HT-29 = assay: Cytotoxicity against human HT-29 cells assessed as cell growth level at 10 nM after 48 hrs by sulforhodamine B assay
NCI-H322M [8] = assay: Cytotoxicity against human NCI-H322M cells assessed as cell growth level at 100 uM after 48 hrs by sulforhodamine B assay
MDA-MB-468 [9] = assay: Cytotoxicity against human MDA-MB-468 cells after 48 hrs by sulforhodamine B assay; details: MDA-MB-468, 48 h
RXF 393 [10] = assay: Cytotoxicity against human RXF393 cells assessed as cell growth level at 1 uM after 48 hrs by sulforhodamine B assay
HCC 2998 [11] = assay: Cytotoxicity against human HCC2998 cells assessed as cell growth level at 1 uM after 48 hrs by sulforhodamine B assay
T47D = assay: Cytotoxicity against human T47D cells assessed as cell growth level at 1 uM after 48 hrs by sulforhodamine B assay
OVCAR-3 = assay: Cytotoxicity against human OVCAR3 cells assessed as cell growth level at 1 uM after 48 hrs by sulforhodamine B assay
NCI-H322M [12] = assay: Cytotoxicity against human NCI-H322M cells after 48 hrs by sulforhodamine B assay
BT-549 [13] = assay: Cytotoxicity against human BT549 cells assessed as cell growth level at 10 nM after 48 hrs by sulforhodamine B assay
SN12C = assay: Cytotoxicity against human SN12C cells assessed as cell growth level at 100 nM after 48 hrs by sulforhodamine B assay
Malme-3M = assay: Cytotoxicity against human MALME-3M cells after 48 hrs by sulforhodamine B assay
A549 = assay: Cytotoxicity against human A549/ATCC cells assessed as cell growth level at 1 uM after 48 hrs by sulforhodamine B assay
SNB-75 [14] = assay: Cytotoxicity against human SNB75 cells assessed as cell growth level at 1 uM after 48 hrs by sulforhodamine B assay
M14 = assay: Cytotoxicity against human M14 cells after 48 hrs by sulforhodamine B assay; details: M14, 48 h
[15] = read-out: LC50 (the source's name)
[16] = read-out: pLC50 (the source's name) (converted)

O=c1oc2ccccc2cc1-c1csc(N/N=C/c2c[nH]c3ccccc23)n1
Activity (MDA-MB-231): 97%
Activity (OVCAR-5): 55.24%
GI50 (OVCAR-8; read-out: GI50): 1.9 µM
CC50 (OVCAR-8; [15]): > 100 µM
TGI (OVCAR-8; read-out: TGI): 4.56 µM
GI50 (OVCAR-8; read-out: pGI50 (converted)): 1.91 µM
CC50 (OVCAR-8; [16]): > 100 µM
TGI (OVCAR-8; read-out: pTGI (converted)): 4.57 µM
Activity (BT-549 [1]): 58%
Activity (NCI-H460): -94%
Activity (HCT-15): -48%
Activity (MOLT-4): 20%
Activity (786-0): -53.65%
Activity (RXF 393 [2]): 98%
Activity (K562): 95%
Activity (HOP-92 [3]): -27%
Activity (HL-60(TB)): -28.24%
GI50 (IGROV-1; read-out: GI50): 1.54 µM
CC50 (IGROV-1; [15]): > 100 µM
TGI (IGROV-1; read-out: TGI): 4.7 µM
GI50 (IGROV-1; read-out: pGI50 (converted)): 1.55 µM
CC50 (IGROV-1; [16]): > 100 µM
TGI (IGROV-1; read-out: pTGI (converted)): 4.68 µM
Activity (A498): 6.72%
Activity (PC-3): 102%
Activity (MDA-MB-468 [4]): -39%
Activity (HOP-92 [5]): 94%
GI50 (DU-145; read-out: GI50): 1.8 µM
CC50 (DU-145; [15]): > 100 µM
TGI (DU-145; read-out: TGI): 4.27 µM
GI50 (DU-145; read-out: pGI50 (converted)): 1.82 µM
CC50 (DU-145; [16]): > 100 µM
TGI (DU-145; read-out: pTGI (converted)): 4.27 µM
Activity (ACHN): 10.07%
Activity (UACC-62): 42.96%
Activity (LOX IMVI): -45%
Activity (SNB-75 [6]): -53%
GI50 (HCC 2998 [7]; read-out: GI50): 2.82 µM
CC50 (HCC 2998 [7]; [15]): > 100 µM
TGI (HCC 2998 [7]; read-out: TGI): 6.8 µM
GI50 (HCC 2998 [7]; read-out: pGI50 (converted)): 2.82 µM
CC50 (HCC 2998 [7]; [16]): > 100 µM
TGI (HCC 2998 [7]; read-out: pTGI (converted)): 6.76 µM
Activity (HT-29): 106%
Activity (NCI-H322M [8]): -10%
GI50 (MDA-MB-468 [9]; read-out: GI50): 1.52 µM
CC50 (MDA-MB-468 [9]; [15]): > 100 µM
TGI (MDA-MB-468 [9]; read-out: TGI): 3.92 µM
GI50 (MDA-MB-468 [9]; read-out: pGI50 (converted)): 1.51 µM
CC50 (MDA-MB-468 [9]; [16]): > 100 µM
TGI (MDA-MB-468 [9]; read-out: pTGI (converted)): 3.89 µM
Activity (RXF 393 [10]): 53%
Activity (HCC 2998 [11]): 84%
Activity (T47D): 81%
Activity (OVCAR-3): 61%
GI50 (NCI-H322M [12]; read-out: GI50): 3.16 µM
LC50 (concentration killing 50% of cells) (NCI-H322M [12]; read-out: LC50): > 100 µM
TGI (NCI-H322M [12]; read-out: TGI): 32.2 µM
GI50 (NCI-H322M [12]; read-out: pGI50 (converted)): 3.16 µM
LC50 (concentration killing 50% of cells) (NCI-H322M [12]; read-out: pLC50 (converted)): > 100 µM
TGI (NCI-H322M [12]; read-out: pTGI (converted)): 32.4 µM
Activity (BT-549 [13]): 95%
Activity (SN12C): 90%
GI50 (Malme-3M; read-out: GI50): 1.59 µM
CC50 (Malme-3M; [15]): > 100 µM
TGI (Malme-3M; read-out: TGI): 4.17 µM
GI50 (Malme-3M; read-out: pGI50 (converted)): 1.58 µM
CC50 (Malme-3M; [16]): > 100 µM
TGI (Malme-3M; read-out: pTGI (converted)): 4.17 µM
Activity (A549): 68%
Activity (SNB-75 [14]): 74%
GI50 (M14; read-out: GI50): 1.95 µM
CC50 (M14; [15]): 9.13 µM
TGI (M14; read-out: TGI): 4.22 µM
GI50 (M14; read-out: pGI50 (converted)): 1.95 µM
CC50 (M14; [16]): 9.12 µM
TGI (M14; read-out: pTGI (converted)): 4.17 µM
